Measurements published in patent US20200190202A1, “Reprogramming of CD8 T Cells with CXCL12 Signaling Inhibitors” (priority 2017, published 2020).
Like-named read-outs stand apart in the source and are kept apart here.

Experiments:
[1] = 0.01-0.02 mg/kg subcutaneously twice daily for 6 months; cited from earlier work
[2] = system: CD8+ T cells of AE17 tumor-bearing mice; test: Ex-vivo restimulation with recombinant mesothelin and intracellular IFN-γ detection, AE17 mice; assay type: in vivo, mouse; settings: AE17 model, compared to saline
[3] = system: ovarian cancer; settings: monotherapy in ovarian tumor-bearing mice; cited from earlier work
[4] = system: AE17 mouse mesothelioma; test: Intraperitoneal malignant mesothelioma model, tumor growth and survival, AE17; assay type: in vivo; settings: compared to saline control
[5] = system: T cells in spleens and tumors of 40 L tumor-bearing mice; test: Immune profiling by flow cytometry, 40 L tumor-bearing mice; assay type: in vivo, mouse; settings: for proportion of CD8+ T cells in total live cells: compared to saline control
[6] = system: GFP-Foxp3 expressing CD4+ splenocytes (Treg cells); settings: AMD3100 5 μg/ml, 24 hours
[7] = system: T cells in spleens, lymph nodes and tumors of AE17 tumor-bearing mice; test: Immune profiling by flow cytometry, AE17 tumor-bearing mice; assay type: in vivo, mouse; settings: for proportion of CD8+ T cells in total live cells: compared to saline control
[8] = system: 40 L mouse mesothelioma; test: Intraperitoneal malignant mesothelioma model, tumor growth and survival, 40 L; assay type: in vivo; settings: 40 L model; compared to saline control
[9] = system: CD8+ T cells of 40 L tumor-bearing mice; test: Ex-vivo restimulation with recombinant mesothelin and intracellular IFN-γ detection, 40 L mice; assay type: in vivo, mouse; settings: splenic CD8+ T cells; 40 L model; compared to saline
[10] = tumors, 40 L model, compared to saline
[11] = lymph nodes, AE17 model, compared to saline
[12] = tumors, AE17 model, compared to saline

c1cc(CN2CCCNCCNCCCNCC2)ccc1CN1CCCNCCNCCCNCC1 [AMD3100, plerixafor]
safety of long-term, low-dose treatment [1]: safety | mesothelin-specific IFN-γ expression in CD8+ T cells ([2]; lymph node CD8+ T cells): did not enhance | mesothelin-specific IFN-γ expression in CD8+ T cells ([2]; splenic CD8+ T cells): did not enhance | intratumoral Treg cells [3]: selective reduction | survival [3]: survival advantage | animal survival [4]: only modest benefit | proportion of PD-1-expressing CD8+ T cells ([5]; spleens, 40 L model, compared to saline): significantly fewer | proportion of CD8+ T cells in total live cells ([5]; spleens, 40 L model): did not increase | proportions of Treg cells ([5]; spleens, 40 L tumor-bearing mice): did not alter | IL-2+ CD40L+ cells among the Foxp3+ CD25− Treg population ([5]; tumors of 40 L mice): significantly more | ratio of CD25− cells to CD25+ cells within the Foxp3+ population ([5]; tumors of 40 L mice): significantly increased | proportion of PD-1-expressing CD8+ T cells [5, 10]: significantly fewer | proportions of Treg [5, 10]: significantly decreased | ratio of CD8+ T cells to Treg [5, 10]: increased | proportion of CD8+ T cells in total live cells ([5]; tumors, 40 L model): did not increase | conversion of Foxp3+ CD25− Treg into IL-2+ CD40L+ cells ([6]; anti-CD3/CD28 antibodies 1 μg/ml, P=0.0015): converted more | ratio of the proportion of CD25− cells to CD25+ cells in the Foxp3+ CD4+ population ([6]; anti-CD3/CD28 antibodies 1 μg/ml, P=0.0017): significantly increased | ratio of the proportion of CD25− cells to CD25+ cells in the Foxp3+ CD4+ population ([6]; no anti-CD3/CD28 stimulation): did not change | IL-2+ CD40L+ cells among the Foxp3+ CD25− Treg population ([7]; lymph nodes of AE17 mice): significantly more | ratio of CD25− cells to CD25+ cells within the Foxp3+ population ([7]; lymph nodes, AE17 model): significantly increased | cell ratio of CD8+ T cells to Treg cells [7, 11]: significantly increased | proportion of PD-1-expressing CD8+ T cells [7, 11]: significantly fewer | proportion of CD8+ T cells in total live cells ([7]; lymph nodes, AE17 model): did not increase | Treg in the lymph nodes ([7]; lymph nodes, AE17 tumor-bearing mice): generally reduced | proportion of PD-1-expressing CD8+ T cells ([7]; spleens, AE17 model, compared to saline): significantly fewer | proportion of CD8+ T cells in total live cells ([7]; spleens, AE17 model): did not increase | proportion of PD-1-expressing CD8+ T cells [7, 12]: significantly fewer | proportions of Treg [7, 12]: significantly decreased | ratio of CD8+ T cells to Treg [7, 12]: increased | proportion of CD8+ T cells in total live cells ([7]; tumors, AE17 model): did not increase | animal survival [8]: only modest benefit | mesothelin-specific IFN-γ expression in CD8+ T cells [9]: did not enhance
